Entries after “also recorded” stand apart in the source; their conditions may differ. Where two headings read alike, the source gives them in different places.

In one data set the test system is T47D breast cancer cells. Put plainly: Colony formation assay in T47D cells with ARID1A knockdown. The format is cell-based. The following applies: 10 and 20 nM AZD8055, 4 weeks. The method, then:
(§1) (B) Validation of independent shRNAs (in pLKO vector) targeting ARID1A in T47D breast cancer cells. TIhe functional phenotypes of non-overlapping shARID1A vectors are indicated by the colony formation assay in 10 and 20 nM small molecule mTOR inhibitor AZD8055. The cells were fixed, stained and photographed after 2 weeks (untreated) or 4 weeks (inhibitor treatment). Ectopic expression of a mutant of cyclin DI (pBpDITA) served as a control in the experiment. (C) Validation of independent shRNAs (in pLKO vector) targeting ARID1A in MCF7 breast cancer cells. The functional phenotypes of non-overlapping shARIDJA vectors are indicated by the colony formation assay in 20 and 40 nM small molecule mTOR inhibitor AZD8055. The cells were fixed, stained and photographed after 2 weeks (untreated) or 4 weeks (inhibitor treatment). (D). Quantification of ARID1A mRNA levels by QRT-PCR after knockdown of ARID1A in MCF7 breast cancer cells.

The subject of the next data set is MCF7 breast cancer cells. Put plainly: Colony formation assay in MCF7 cells with ARID1A knockdown. Particulars: 20 and 40 nM AZD8055, 4 weeks. The format is cell-based. The method, then: as §1
For data set [1], the system named is BT474 breast cancer cells. Put plainly: Colony formation assay in BT474 cells with ARID1A knockdown. The format is cell-based, human. Particulars: 25 nM AZD8055 or 2 ug/ml trastuzumab, 4 weeks. An excerpt:
The cells were fixed, stained and photographed after 2 weeks (untreated) or 4 weeks (inhibitor treatment).

The subject of data set [2] is PI3K pathway members (p473-AKT, p235/236-S6RP). Put plainly: Immunoblot of PI3K pathway members in BT474 cells. Type of data set: cell-based, human. Particulars: BT474 expressing three independent shARID1A vectors versus shctrl; increasing amounts of AZD8055, three hours. The method, then: BT474 cells stably expressing either shctrl, shTSC2 or three independent shARID1A vectors were exposed to increasing amounts of the mTOR inhibitor AZD8055. After three hours, cell lysates were prepared and PI3K pathway members were immunoblotted.

In a further data set the test system is H3122 cells. Put plainly: Colony formation assay in H3122 cells with or without shRNA knockdown. Type of data set: cell-based, human. Particulars: for sensitivity to ALK inhibitors after restoration of Med12: H3122 MED12 knockdown cells (shMED12_TRC#3, #5) plus mouse Med12 cDNA; for sensitivity to ALK inhibitors after restoration of Med12 / sensitivity to ALK inhibitors after restoration of SMARCE1: 300 nM Crizotinib or 2.5 nM NVP-TAE684; for sensitivity to ALK inhibitors after restoration of SMARCE1: H3122 SMARCE1 knockdown cells plus SMARCE1-ND; for resistance to ALK inhibitors on suppression of ARID1A or SMARCE1, colony formation: H3122 expressing independent shARID1A or shSMARCE1 vectors; for resistance to ALK inhibitors on suppression of ARID1A or SMARCE1, colony formation / resistance to ALK inhibitors on suppression of MED12, colony formation / resistance to ALK inhibitors, colony formation: 300 nM Crizotinib or 2.5 nM NVP-TAE684, 4 weeks; for resistance to ALK inhibitors on suppression of MED12, colony formation: H3122 expressing independent shMED12 vectors (pRS #3; pLKO TRC#2, #3, #5); for resistance to ALK inhibitors, colony formation: H3122 expressing library shMED12#1, shMED12#2, shARID1A or shSMARCE1.

A further data set deals with phospho-AKT. Put plainly: Western blotting of phospho-AKT in H3122 cells. Type of data set: cell-based, human. The following applies: H3122 shSMARCE1 cells versus controls; 20 nM NVP-TAE684, 24 hours. The procedure: (B) SMARCE1^KD cells have elevated phospho-AKT levels in EML4-ALK cells. H3122 cells expressing controls (pRS or shGFP) or shSMARCE1 vectors were gown in the absence or presence of 20 nM NVP-TAE684 for 24 hours and the cell lysates were harvested for western blotting analysis. (C) MED12^KD cells have elevated phospho-AKT levels in EGFR mutant cells. PC9 cells expressing controls (pRS or shGFP) or shSMARCE1 vectors were gown in the absence or presence of 25 nM Gefitinib for 8 hours and the cell lysates were harvested for western blotting analysis.
Given that loss of MED2 or SMARCE1 causes resistance to multiple tyrosine kinase inhibitors in NSCLC cell lines, Applicants asked whether the activity of downstream components of receptor tyrosine kinase signaling is altered. AKT is a key downstream component and its phosphorylation status positively correlates with its activation that can be determined by specific antibodies against the phosphorylated form of AKT. 1-13122 cells were infected with two independent controls shRNA vectors or shRNAs targeting either MED12 or SMARCE1 and confirmed loss of MED112 or SMARCE1 protein by immunoblotting (FIGS. 15A and B). The cells were also treated of left untreated with the ALK inhibitor NVP-TAE684, to address the activation status of AKT in the presence or absence of the inhibitor. […]
(In western blotting, separated proteins are transferred to a membrane and probed.)

Data set [3] deals with human NSCLC cell lines that harbor EML4-ALK translocations. The following applies: cited from earlier work.
Data set [4] relates to HCC 1954 breast cancer cells. Put plainly: shRNA bar code screen in HCC 1954 breast cancer cells. The format is cell-based.
Data set [5] concerns SKBR3 breast cancer cells. Put plainly: shRNA bar code screen in SKBR3 breast cancer cells. Type of data set: cell-based.
The subject of data set [6] is EBC-1 (MET-amplified) cells. Particulars: 200 nM Crizotinib; for sensitivity to MET inhibitor after restoration of SMARCE1: EBC-1 SMARCE1-knockdown cells plus SMARCE1-ND. The method, then: (§2) Single cell suspensions of the lung cancer cell lines were seeded into 6-well plates (2×10^4 cells/well) and cultured both in the absence and presence of the ALK inhibitors. At the endpoints of colony formation assays, cells were fixed with formaldehyde, stained with crystal violet (0,1% w/v) and photographed. All relevant assays were performed independently at least three times. All knockdown and overexpression experiments were done by retroviral or lentiviral infections.
(§3) Subclones of each NSCLC cell line expressing the murine ecotropic receptor were generated and used for all experiments shown. Retroviral infections were performed using Phoenix cells as producers of retroviral supernatants using 2.5-3 μg of plasmid DNA as described (http://www(dot)stanford(dot)edu/group/nolan/retroviralsystems/phx(dot)html). […] For transfections of Phoenix cells, Applicants seeded 1.0×10^6 cells in a 6-well dish in the morning and transfected the cells 6-8 hours later. Cells were refreshed the next day in the morning and afternoon. Viral supernatant was harvested the day thereafter for infections of the target cells. […] Infected NSCLC cells were selected for successful retroviral integration using 2 μg/ml of puromycin.

Data set [7] deals with H1993 (MET-amplified) cells. Particulars: 200 nM Crizotinib; for sensitivity to MET inhibitor after restoration of SMARCE1: H1993 SMARCE1-knockdown cells plus SMARCE1-ND; for resistance to MET inhibitor on suppression of ARID1A: H1993 expressing shARID1A #1 and #2, 4 weeks.
Data set [8] relates to PC9 cells (EGFRdelE746-A750). The format is cell-based, human. The procedure: as §2, §3
A further data set concerns DAB2IP mRNA. Put plainly: DAB2IP knockdown by qRT-PCR in PC9 cells. The format is cell-based, human. The method, then:
QRT-PCR assays were carried out to measure mRNA levels of genes using 7500 Fast Real-Time PCR System (Applied Biosystems). Total RNA was isolated using Trizol (Invitrogen) and 1 μg of total RNA was used for cDNA synthesis using superscrpipt 11 reverse transcriptase (Invitrogen) and random hexamer primers (Invitrogen). Relative mRNA levels of each gene shown were normalized to the expression of the house keeping gene GAPDH. The sequences of the primers for assays using SYBR® Green master mix (Roche) are listed below (h, human: m, mouse).
(In general: In qPCR the cycle at which signal appears reflects the starting amount.)

For the molecule `COc1ccc(-c2ccc3c(N4CCOC[C@@H]4C)nc(N4CCOC[C@@H]4C)nc3n2)cc1CO` [AZD8055], the “resistance on suppression of ARID1A, colony formation” value in the data set on T47D breast cancer cells is “conferred resistance; also recorded: confers resistance”. Further, in the data set on MCF7 breast cancer cells, the “resistance on suppression of ARID1A, colony formation” value is recorded as “conferred resistance; also recorded: confers resistance”. Moreover, in [1], the “resistance on knockdown of ARID1A, colony formation” value was “conferred resistance”. Also, in data set [2], the “phosphorylated AKT (p473-AKT) levels in the presence of inhibitor” value is “maintained higher levels” and the “phosphorylated S6RP (p235/236-S6RP) levels in the presence of inhibitor” value was “maintained higher levels”.

For `COc1cc(N2CCC(N3CCN(C)CC3)CC2)ccc1Nc1ncc(Cl)c(Nc2ccccc2S(=O)(=O)C(C)C)n1` [NVP-TAE684], in the data set with H3122 cells, the “sensitivity to ALK inhibitors after restoration of Med12” value is on record as “re-sensitizes”; the “sensitivity to ALK inhibitors after restoration of SMARCE1” value is on record as “re-sensitizes”; the “resistance to ALK inhibitors on suppression of ARID1A or SMARCE1, colony formation” value is “confers drug resistance”; the “resistance to ALK inhibitors on suppression of MED12, colony formation” value is “confers drug resistance”. In addition, in the data set on H3122 cells, the “resistance to ALK inhibitors, colony formation” value is reported as “confer resistance”. Also, the “phosphorylated AKT levels in the presence of inhibitor” value in the data set with phospho-AKT is reported as “maintained higher levels”. For the same molecule, the “inhibition of EML4-ALK NSCLC cell lines” value in [3] is recorded as “potently inhibit”.

For the molecule `Cn1c(=O)n(-c2ccc(C(C)(C)C#N)cc2)c2c3cc(-c4cnc5ccccc5c4)ccc3ncc21` [NVPBEZ235], the “resistance on knockdown of ARID1A” value in data set [4] was “conferred resistance”.

Consider `Oc1cccc(-c2nc(N3CCOCC3)c3oc4ncccc4c3n2)c1` [PI-103], for which the “resistance on knockdown of ARID1A (SMARCF1)” value in data set [5] is recorded as “conferred resistance”.

`C[C@@H](Oc1cc(-c2cnn(C3CCNCC3)c2)cnc1N)c1c(Cl)ccc(F)c1Cl` [crizotinib]: in the data set with H3122 cells, the “sensitivity to ALK inhibitors after restoration of Med12” value is “re-sensitizes”; the “sensitivity to ALK inhibitors after restoration of SMARCE1” value is reported as “re-sensitizes”; the “resistance to ALK inhibitors on suppression of ARID1A or SMARCE1, colony formation” value is given as “confers drug resistance”; the “resistance to ALK inhibitors on suppression of MED12, colony formation” value was “confers drug resistance”. For the same molecule, the “resistance to ALK inhibitors, colony formation” value in the data set on H3122 cells is given as “confer resistance”. In addition, the “sensitivity to MET inhibitor after restoration of SMARCE1” value (“sensitivity to MET inhibitor” below) in data set [6] is reported as “restored the sensitivity”. Besides, in [6] (listed as Crizotinib), the “sensitivity to MET inhibitor” value is given as “re-sensitizes”. For the same molecule, the “resistance to MET inhibitor on suppression of SMARCE1” value in [6] (EBC-1 expressing shSMARCE1#1 and #2) was “conferred resistance”. In addition, in data set [7], the “sensitivity to MET inhibitor” value is recorded as “restored the sensitivity” and the “resistance to MET inhibitor on suppression of ARID1A” value was “conferred resistance”. Also, in [7] (listed as Crizotinib), the “sensitivity to MET inhibitor” value is given as “re-sensitizes” and the “resistance to MET inhibitor on suppression of ARID1A” value is “are resistance”. The “resistance to MET inhibitor on suppression of SMARCE1” value in [7] (H1993 expressing shSMARCE1#1 and #2) is recorded as “conferred resistance”.

Consider “shDAB2IP#2: lentiviral pLKO shRNA vector from the TRC library targeting DAB2IP, sequence GACTCCAAACAGAAGATCATT (pLKO lentiviral vector)”, for which, in data set [8], the “toxicity of shRNA vector” value is reported as “exhibited toxicity”.

In the case of “shDAB2IP#5: lentiviral pLKO shRNA vector from the TRC library targeting DAB2IP, sequence GCACATCACTAACCACTACCT (pLKO lentiviral vector)”, the “knockdown of DAB2IP” value in the data set on DAB2IP mRNA is listed as “failed to induce a knockdown”.

(Values after patent US20140287931A1, “METHODS AND COMPOSITIONS FOR PREDICTING RESISTANCE TO ANTICANCER TREATMENT” (Stichting het Nederlands Kanker Instituut - Antoni van …, priority 2011, published 2014).)
